Test results: patent publication US11738022B2, “Methods for inducing pupil dilation” (THE REGENTS OF THE UNIVERSITY OF COLORADO, A BODY CORPORATE, priority 2017, dated 2023)

Tested on: pupil
Experiment: Pupil dilation measured with Neuroptics pupillometer after α-2 agonist pre-treatment and/or phenylephrine
Type: in vivo, human
Description: Dilation medication used was Phenylephrine hydrochloride 10% (Akorn, Inc). Pupillometer used was a Neuroptics DP-2000 Binocular Pupillometer).
Dilation using phenylephrine hydrochloride 10% was conducted in both eyes of the test subject to use as a control against the other compounds being tested.
After this, dilation using phenylephrine hydrochloride 2.5% or phenylephrine hydrochloride 10% was conducted to investigate the effects of the compound on pupil dilation.
Apracionidine 0.5% was administered in the right eye of the test subject three (3) times a day for 4 days. After this, dilation using phenylephrine hydrochloride 10% was conducted to investigate the effects of the compound on pupil dilation.
After this, dilation using phenylephrine hydrochloride 10% was conducted to investigate the effects of the compound on pupil dilation.
A washout period of multiple months was undertaken in between each experiment.
Pupil measurements were obtained using a Neuroptics pupillometer. Parameters were as follows: Scotopic conditions for 1 second, followed by photopic conditions for 4 seconds (1258.925 lux), followed by scotopic conditions for 10 seconds. This allowed for investigation of scotopic pupil size, photopic pupil size, and scotopic pupil size recovery after the light stimulus concluded.
The pupils of the subject's pretreated right eye and untreated control left eye were then measured under both scotopic and photopic conditions for baseline measurements (FIG. 6A). Photopic conditions consisted of a 4 second window where a light was shining in both eyes simultaneously. […]
The experiment was repeated at a higher dosage wherein the subject was administered a second ophthalmic formulation containing 10% phenylephrine to both eyes. 30 minutes after instillation of 10% phenylephrine, the pupils of the subject were then measured under both scotopic and photopic conditions (FIG. 6C). […] Because the area of a circle is dependent on the radius squared (area of a circle=πr^2), the increase in area that is created from a increasing the pupil dilation size is not linear.
The results were then compared.

[1] = after pre-treatment of right eye only, 3 times a day for 4 days, before phenylephrine
[2] = after pre-treatment of right eye only, 3 times a day for 4 days, before phenylephrine, left eye not treated
[3] = dilation pre and post treatment with α 2 agonist: treated eye vs control measurements of same eye
[4] = non-treated eye dilation compared to treated eye dilation
[5] = photopic conditions (1258.925 lux) after dilation with phenylephrine 10%
[6] = photopic conditions (1258.925 lux) after dilation with phenylephrine 10%, eye without pre-treatment
[7] = right eye pre-treated 3 times a day for 4 days, then phenylephrine 2.5% both eyes (FIG. 6B)

Brc1c(NC2=NCCN2)ccc2nccnc12 [Brimonidine, brimonidine]
dilation speed of pretreated eye vs control eye on return to scotopic conditions (30 minutes after 2.5% phenylephrine (FIG. 6B)): more rapidly
dilation speed of pretreated eye vs control eye upon removal of the light (30 minutes after 10% phenylephrine (FIG. 6C)): more rapidly
average increase in dilation size in the pretreated eye compared to the control eye (30 minutes after 10% phenylephrine both eyes (FIG. 6C)): 36%
dilation speed of pretreated eye upon return to scotopic conditions (after 4 days pre-treatment, before phenylephrine (FIG. 6A)): much more slowly
increase of surgical work area compared to the pre-treatment control dilation amount in the same eye (after dilation with phenylephrine hydrochloride 10%): approximately 103%
CH LStim Ave [1]: 69%
CH RPupil Ave [1]: 67%
CH RStim Ave [1]: 69%
CH Right [1]: 67%
CLAT LStim Ave [1]: 0.17 s
CLAT RPupil Ave [1]: 0.18 s
CLAT RStim Ave [1]: 0.17 s
CLAT Right [1]: 0.18 s
DELTA LStim Ave [1]: 4.70 mm
DELTA RPupil Ave [1]: 4.21 mm
DELTA RStim Ave [1]: 4.70 mm
DV LStim Ave [1]: 1.02 mm/s
DV RPupil Ave [1]: 1.00 mm/s
DV RStim Ave [1]: 1.02 mm/s
DV Right [1]: 1.00 mm/s
MCV LStim Ave [1]: 6.57 mm/s
MCV RPupil Ave [1]: 6.76 mm/s
MCV RStim Ave [1]: 6.57 mm/s
Max LStim Ave [1]: 6.86 mm
Max RStim Ave [1]: 6.86 mm
Max Right [1]: 6.27 mm
Min LStim Ave [1]: 2.16 mm
Min RPupil Ave [1]: 2.06 mm
Min RStim Ave [1]: 2.16 mm
Min Right [1]: 2.06 mm
CH LPupil Ave [2]: 70%
CH Left [2]: 70%
CLAT LPupil Ave [2]: 0.17 s
CLAT Left [2]: 0.17 s
DELTA Left [2]: 5.21 mm
DV Left [2]: 1.05 mm/s
MCV Left [2]: 6.38 mm/s
Max Left [2]: 7.46 mm
Min Left [2]: 2.25 mm
Pupil size change (%) [3]: +42.62%
Surgical work area change (%) [3]: +103.4%
Pupil size change (%) [4]: +35.81%
Surgical work area (%) [4]: +84.44%
Pupil size, Treated eye [5]: 5.12 mm
Surgical Work area, Treated eye [5]: 20.58 mm^2
Pupil size, Non-treated eye [6]: 3.77 mm
Surgical Work area, Non-treated eye [6]: 11.16 mm^2
dilation of pretreated eye vs control eye (photopic conditions, 30 minutes after 2.5% phenylephrine (FIG. 6B)): more dilated
dilation of pretreated eye vs control eye (photopic conditions, 30 minutes after 10% phenylephrine (FIG. 6C)): much more dilated
pupil area, pre-treated eye (photopic conditions, after 10% phenylephrine (FIG. 6C)): 20.59 mm^2
pupil area, control eye (photopic conditions, after 10% phenylephrine (FIG. 6C), eye without pre-treatment): 11.16 mm^2
increase in surgical workspace (pre-treated vs control eye, photopic conditions, after 10% phenylephrine): ~85%
CH LStim Ave [7]: 64%
CH RPupil Ave [7]: 61%
CH RStim Ave [7]: 64%
CH Right [7]: 61%
CLAT LStim Ave [7]: 0.19 s
CLAT RPupil Ave [7]: 0.19 s
CLAT RStim Ave [7]: 0.19 s
CLAT Right [7]: 0.19 s
DELTA LStim Ave [7]: 4.98 mm
DELTA RPupil Ave [7]: 4.70 mm
